Measured values taken from patent publication US20250099407A1, “2-AMINO BENZOPHENONE DERIVATIVES FOR TARGETED FERROPTOSIS INDUCTION IN CANCER THERAPY” (INDIAN INSTITUTE OF TECHNOLOGY KANPUR, priority 2023, published 2025).

Tested on: 4T1 cells
Assay: Combination cell viability experiments in 4T1 cells
Type: cell-based
Conditions: 4T1, Ferrostain-1 10 μM
Method: FIG. 14 depicts a combination experiment indicates the involvement of thiol modulation by IITK3001/IITK3002 on the viability of Huh-7 and 4T1 cells, in accordance with an embodiment of the present invention. The viability of screened cancer cells was recorded using a luminescence-based CellTiter-Glo® assay for the ATP quantification. The screening concentration of (a) IITK3001 and (b) IITK3002 ranged from 10 uM to 4.5 nM with an 8-point-3-fold dilution series in DMEM medium (>0.1% DMSO as control). For combination experiments, 500 μM of NAC or glutathione and 25 μM of BSO were used. Each experiment was conducted in more than two biological replicates with three technical replicates. The error bar is a representation of standard deviation among the technical replicates.
FIG. 17 depicts IITK3001-mediated ferroptosis induction as a cell death mechanism in 4T1 cells is recorded, in accordance with an embodiment of the present invention. The screening concentration of (a) IITK3001 and (b) IITK3002 ranged from 10 μM to 4.5 nM with an 8-point-3-fold dilution series. […]
FIG. 19 depicts IITK3001-mediated ferroptosis induction as a cell death mechanism in 4T1 cells is recorded, in accordance with an embodiment of the present invention. […]

CN(C(=O)CCl)c1ccccc1C(=O)c1ccccc1 [IITK3001, N-(2-benzoylphenyl)-2-chloro-N-methylacetamide]
effect of Fer-1 combination in 4T1 cells: negligible
